Data set [1] can be described thus: Real-time stability (RTS) of everolimus in chlorhexidine-containing cell-free blood hemolysate, LC-MS/MS. The data set is classed as physicochemical. The conditions noted are these: for everolimus concentration: hemolysate with 0.024% chlorhexidine. How it is done: (§1) A formulation was prepared by firstly hemolyzing human whole blood: Human EDTA whole blood of 5 donors was hemolyzed by a freeze-and-thaw cycle. After freezing the whole blood sample from each donor separately at −80° C. and thawing at room temperature, all samples were combined, mixed on a roller for at least 1 hour and then centrifuged for 15 minutes at 22° C. and 12000 g in order to remove fragments of hemolyzed blood cells potentially present. After the centrifugation, the upper section (approximately ⅘ of the whole volume) of the hemolyzed blood was used as hemolysate. Finally, chlorhexidine was added to the hemolysate to a concentration of 0.024%.
For checking the RTS, the chlorhexidine-containing hemolysate was spiked from a highly concentrated stock solution of everolimus to approx. 100 ng/ml, and aliquots thereof were stressed at 6° C. for 3, 6, 9, 12, and 15 months respectively in brown LC-MS vials. The stressed samples and the corresponding non-stressed samples (T0 samples) were analyzed by LC-MS/MS measurements.
LC-MS/MS method: Before performing the LC-MS/MS analysis, the samples were treated by addition of 10 μL isotope-labeled internal standards (d4/2×C13—everolimus) to 100 μL of the sample to be analyzed, followed by a protein precipitation by addition of 150 μL acetonitrile. The mixture was incubated at 4° C. for 60 minutes and then centrifuged (18000 g, 4° C., 30 min). The supernatant was diluted 1:4 with a solvent mixture of 30% acetonitrile and 70% water and then injected in the LC-MS/MS. The samples were quantified by an external calibration curve. The calibrator was a set of solutions with different concentrations of analyte and they were run through the same preparation workflow, with the same internal standard as the samples. For the calculation of the concentration in a sample, the response factors (ratio of analyte peak area and internal standard peak area) of the sample were referenced with the linear function of the calibration curve (ratio by concentration). The recovery value was the concentration measured at time point (Ti) compared to the non-stressed concentration at start time point (T0) as reference (see Table 3). Formulations with recoveries >90% were classified as stable.
LC-MS/MS conditions were • Solvents: A: 0.5 mM NH4Acetate in H2O/B: Methanol • Gradient: according to Table 2. • AB Sciex 6500 QTRAP/Agilent HPLC 1290-Infinity • APCI source negative mode • Column: Phenomenex—Kinetex F5, 2.6 μm particle, 150 mm×2.1 mm • Temperature: 50° C. (Column) and 8° C. (Autosampler) • Injection volume 20 μL • Calibration: external, with 6 concentration levels covering 0-500 ng/mL • MRM Transition at DP: −76 V EP: −10 V CE: −30 V CXP: −24 V • Detection: everolimus: Q1: 956.6 Da Q3: 590.2 Da; everolimus d4,2×C13: Q1: 962.2 Da Q3: 590.2 Da.

Data set [2] in a line: Real-time stability study of everolimus in hemolysate with NaN3 as additive. The data set is classed as physicochemical. The conditions noted are these: hemolysate with 0.009% sodium azide.
For data set [3] the following is noted: cited from earlier work.
For data set [4] the following is noted: known from literature; cited from earlier work.
Data set [5] in a line: Real-time stability (RTS) of sirolimus and tacrolimus in chlorhexidine-containing cell-free blood hemolysate, LC-MS/MS. The data set is classed as physicochemical. The conditions noted are these: for real-time stability demonstrated: 6° C., chlorhexidine-containing hemolysate formulation; for area-ratio (analyte / internal standard): hemolysate with 0.024% chlorhexidine. How it is done: as §1
For checking the RTS, the chlorhexidine-containing hemolysate was spiked from a highly concentrated stock solution of sirolimus to approx. 100 ng/mL or tacrolimus to approx. 135 ng/mL, and aliquots thereof were stressed at 6° C. for 3 months respectively in brown LC-MS vials. The stressed samples and the corresponding non-stressed samples (T0 samples) were stored at 6° C. for a couple of days until their LC-MS/MS analysis.
LC-MS/MS method: Before performing the LC-MS/MS analysis the samples were prepared by addition of 10 μL structurally similar internal standards (everolimus D4 2×C13 for sirolimus and non-labeled ascomycin for tacrolimus) to 100 μL of the sample to be analyzed, followed by a protein precipitation by addition of 150 μL acetonitrile. The mixture was incubated at 4° C. for 60 minutes and then centrifuged (18000 g, 4° C., 30 min). The supernatant was 1:4 diluted with a solvent mixture of 30% acetonitrile and 70% deionized water and then injected in the LC-MS/MS. The recovery value was the found area-ratio at time point (T1) compared to the non-stressed area-ratio at start time point (T0) as reference (see table 5). Formulations with recoveries >90% were classified as stable and with 80-90% as acceptable.
LC-MS/MS conditions were • Solvents: A: 5 mM NH4Acetate in H2O+0.1% Formic acid/ • B: Methanol+0.1% Formic acid • Gradient: according to Table 4. • AB Sciex Triple Quad 6500+/Agilent HPLC 1290-Infinity II • ESI source • Column: Phenomenex—Kinetex F5, 2.6 μm particle, 50 mm×2.1 mm • Temperature: 40° C. (Column) and 8° C. (Autosampler) • Injection volume 20 μL • MRM Transition at DP: 70 V EP: 10 V CXP: 12 V • Detection: everolimus: Q1: 975.7 Da Q3: 908.7 Da CE 25 V • everolimus d4,2×C13: Q1: 981.7 Da Q3: 914.7 Da CE 25 V • sirolimus: Q1: 931.7 Da Q3: 864.6 Da CE 25 V • tacrolimus: Q1: 821.5 Da Q3: 576.4 Da CE 33 V • ascomycin: Q1: 809.5 Da Q3: 564.4 Da CE 33 V

Molecules are shown by their SMILES. Where “and” joins values, the source holds several entries; their conditions need not be identical. Identical values can stand only once. Like-named read-outs stand apart in the source and are kept apart here.

`CO[C@H]1C[C@@H]2CC[C@@H](C)[C@@](O)(O2)C(=O)C(=O)N2CCCC[C@H]2C(=O)O[C@H]([C@H](C)C[C@@H]2CC[C@@H](OCCO)[C@H](OC)C2)CC(=O)[C@H](C)/C=C(\C)[C@@H](O)[C@@H](OC)C(=O)[C@H](C)C[C@H](C)/C=C/C=C/C=C/1C` [everolimus, (1R,9S,12S,15R,16E,18R,19R,21R,23S,24E,26E,28E,30S,32S,35R)-1,18-dihydroxy-12-[(2R)-1-[(1S,3R,4R)-4-(2-hydroxyethoxy)-3-methoxycyclohexyl]propan-2-yl]-19,30-dimethoxy-15,17,21,23,29,35-hexamethyl-11,36-dioxa-4-azatricyclo hexatriaconta-16,24,26,28-tetraene-2,3,10,14,20-pentone]: the everolimus concentration in data set [1] (3 months at 6° C.) is on record as 71.1 ng/mL; in data set [1] (6 months at 6° C.), 81.8 ng/mL; in data set [1] (9 months at 6° C.), 74.6 ng/mL; in data set [1] (12 months at 6° C.) it was 92.0 ng/mL; in data set [1] (15 months at 6° C.), 77.8 ng/mL; in data set [1] (T0 (non-stressed), spiked approx. 100 ng/ml), 74.8 ng/mL. The compound further came in with a real-time stability demonstrated in data set [1] (6° C., chlorhexidine-containing hemolysate formulation) of 15 months. Further, the “measured value for stressed everolimus (unit not given)” value in data set [2] (3 months at 6° C.) is recorded as 0.732; in data set [2] (T0), 0.781. In addition, the “Literature-provided stability of blood samples” value in data set [3] (2-8° C., 4° C.) was 7d/4 °C ^11; in data set [3] (>RT, 30° C. (in light)), 7d/30 °C (in light) ^1; in data set [3] (RT (in light)), 6h/RT (in light) ^4. Further, in data set [4], the aqueous solubility entry was “poor”.

Regarding `CO[C@H]1C[C@@H]2CC[C@@H](C)[C@@](O)(O2)C(=O)C(=O)N2CCCC[C@H]2C(=O)O[C@H]([C@H](C)C[C@@H]2CC[C@@H](O)[C@H](OC)C2)CC(=O)[C@H](C)/C=C(\C)[C@@H](O)[C@@H](OC)C(=O)[C@H](C)C[C@H](C)/C=C/C=C/C=C/1C` [sirolimus, (1R,9S,12S,15R,16E,18R,19R,21R,23S,24E,26E,28E,30S,32S,35R)-1,18-dihydroxy-12-{(2R)-1-[(1S,3R,4R)-4-hydroxy-3-methoxycyclohexyl]-2-propanyl}-19,30-dimethoxy-15,17,21,23,29,35-hexamethyl-11,36-dioxa-4-azatricyclo hexatriaconta-16,24,26,28-tetraene-2,3,10,14,20-pentone], the real-time stability demonstrated in data set [5] is listed as 3 months. Also, the “Literature-provided stability of blood samples” value is 8d/4 °C in data set [3] (2-8° C., 4° C. (dark & in light)); 7d/4 °C ^11 in data set [3] (2-8° C., 4° C.); 1a/−20 to −80 °C ^3 in data set [3] (<0° C., −20 to −80° C.); 3m/−20 °C ^1 and 6m/−20 °C ^11 in data set [3] (<0° C., −20° C.); 8d/30 °C in data set [3] (>RT, 30° C. (dark & in light)); 7d/30 °C (in light) ^1 in data set [3] (>RT, 30° C. (in light)). Besides, the “Literature-provided stability of blood samples” value in data set [3] (RT) is 1d/RT ^11 and 1d/RT ^3. For the same compound, the aqueous solubility result in data set [4] is “poor”.

Turning to `C=CC[C@@H]1/C=C(\C)C[C@H](C)C[C@H](OC)[C@H]2O[C@@](O)(C(=O)C(=O)N3CCCC[C@H]3C(=O)O[C@H](/C(C)=C/[C@@H]3CC[C@@H](O)[C@H](OC)C3)[C@H](C)[C@@H](O)CC1=O)[C@H](C)C[C@@H]2OC` [tacrolimus, (1R,9S,12S,13R,14S,17R,18E,21S,23S,24R,25S,27R)-1,14-dihydroxy-12-[(1E)-1-[(1R,3R,4R)-4-hydroxy-3-methoxycyclohexyl]prop-1-en-2-yl]-23,25-dimethoxy-13,19,21,27-tetramethyl-17-(prop-2-en-1-yl)-11,28-dioxa-4-azatricyclo octacos-18-ene-2,3,10,16-tetrone], the “Recovery value (area-ratio at T1 compared to T0)” value stood at 98% in data set [5] (3 months at 6° C.) and 100% in data set [5] (T0 (reference)). Also, the “area-ratio (analyte / internal standard)” value was 0.972 in data set [5] (3 months at 6° C.) and 0.99 in data set [5] (T0 (non-stressed), sirolimus approx. 100 ng/mL, tacrolimus approx. 135 ng/mL). Further, the real-time stability demonstrated in data set [5] is 3 months. Further, the “Literature-provided stability of blood samples (in words)” value in data set [3] (1d/RT) is reported as “not stable ^9”. In addition, the “Literature-provided stability of blood samples” value is 1a/−70 °C ^8 in data set [3] (<0° C., −70° C.); 3d/37 °C ^7 in data set [3] (>RT, 37° C.); 14d/RT ^8 and 7d/RT ^7 in data set [3] (RT). In addition, the aqueous solubility result in data set [4] is “poor”.

These data come from patent US10864200B2, “Stable formulations for immune-modulatory macrolides” (Roche Diagnostics Operations, Inc., priority 2017, dated 2020).
